Test results as given in patent US20240270730A1, “DRG-MDM2-2 FOR USE AS A NOVEL MOUSE DOUBLE MINUTE 2 (MDM2) INHIBITOR” (BAHCESEHIR UNIVERSITESI, priority 2020, published 2024).

Tests used:
MDA-MB231 cell lines = assay: MTT cell viability assay (IC50); format: cell-based; settings: Homo sapiens, MDA-MB-231; MDA-MB231 cells; single dose of treatment; concentrations 10-9 to 104 M; 570 nm absorbance; FIG. 1; read-out: IC50 (half-maximal inhibitory concentration), MTT cell viability
Experimental: HCT 116 colon cancer and MDA-MB231 breast cancer cell lines are used in cell culture experiments.
Cells were treated with high-glucose DMEM medium (Biosera) supplemented with 10% FBS (Gibco) and 1× penicillin/streptomycin (Multicell). The assay was designed to contain 10,000 cells for each well of 24-well cell culture plates before being treated with inhibitors.
Compound of formula I was dissolved with DMSO as 20 mM stock. 24 hours later, the solution was diluted in DMEM with 10% FBS and final concentration of vehicle DMSO was 0.5% at maximum. Therefore, the vehicle group included 0.5% DMSO concentration in experiments. Intensive cultivation of cells causes a decrease in proliferation capacity.
The MTT cell viability assay was used to detect values of half-maximal inhibitory concentration (IC50). Different concentrations of compound of formula I ranging between 10-9 to 104 M were tested on MDA-MB231 cell lines with single dose of treatment. 570 nm absorbance values were recorded and IC50 values were calculated by dose response—inhibition curves and nonlinear regression analysis on Graphpad Prism 8 software.

MDM2 protein = MDM2 protein (Homo sapiens, UniProt Q00987); settings: compared with a natural p53 peptide; cited from earlier work
MDM2 protein, sequence (Q00987 whole entry, species assumed): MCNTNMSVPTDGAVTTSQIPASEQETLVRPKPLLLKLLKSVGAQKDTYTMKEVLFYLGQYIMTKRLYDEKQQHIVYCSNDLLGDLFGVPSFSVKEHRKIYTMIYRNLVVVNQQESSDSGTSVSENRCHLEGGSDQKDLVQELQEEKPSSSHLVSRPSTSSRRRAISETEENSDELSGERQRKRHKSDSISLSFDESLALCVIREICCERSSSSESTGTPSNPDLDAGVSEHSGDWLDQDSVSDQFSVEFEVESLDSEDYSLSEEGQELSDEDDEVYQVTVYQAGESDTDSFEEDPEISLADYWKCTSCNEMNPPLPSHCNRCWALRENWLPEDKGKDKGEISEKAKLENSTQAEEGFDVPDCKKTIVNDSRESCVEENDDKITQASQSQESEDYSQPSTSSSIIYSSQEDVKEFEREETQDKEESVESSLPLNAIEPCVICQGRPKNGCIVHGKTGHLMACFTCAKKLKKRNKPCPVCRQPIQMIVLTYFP

Row | IC50 (MDA-MB231 cell lines) [nM] | Molecule | binding affinity to MDM2 protein relative to natural p53 peptide (MDM2 protein) [fold]
1 | 891 | O=C(NCc1nc(-c2ccccc2)no1)NC(Cc1c[nH]c2ccccc12)C(=O)O (centres unmarked) [compound of formula I] | 
2 |  | MI-319 | 500
